One may read the GI50 as the concentration at which growth is held to half of that of the control.

The subject of assay [1] is SW480 (KRAS-G12V). Put plainly: Anti-proliferation assay on SW480. Format: cell-based. The conditions noted are these: Homo sapiens, SW480; 72 h treatment; average with SD (n = 3, duplicate). On the procedure:
(§1) Ba/F3-parental, OCI-AML3, U397 cells were purchased from DSMZ. MDA-MB-231, HCT-116, AsPC-1, H358, HT-29, SW480, and DU-145 cells were obtained from KCLB. MDA-MB-468 cells were obtained from ATCC. All cells were maintained in RPMI with 10% FBS and antibiotics. Cells were grown in a humidified 5% CO2 incubator at 37°C. Ba/F3-parental cells were grown in the presence of 10 ng/ml IL-3. NRAS-G12D or NRAS-G12V transformed Ba/F3 cell lines (Ba/F3-NRAS-G12D, and Ba/F3-NRAS-G12V, respectively) were cultured without IL-3, which were established by the procedure described as previously ([30]).
(§2) Approximately 3.0 × 10^3 cells/well were seeded in a 96-well cell culture plate. After stabilization, 1/3 serially diluted compound in DMSO was treated to the cell. […] All GI50 values were obtained in duplicate with three independent assays and averages with standard deviation are presented.

The test system of assay [2] is HCT-116 (KRAS-G13D). Briefly: Anti-proliferation assay on HCT-116. Format: cell-based. Conditions: Homo sapiens, HCT-116; 72 h treatment; average with SD (n = 3, duplicate). On the procedure:
as §1, §2

The subject of assay [3] is DU-145 (KRAS-G12V). Briefly: Anti-proliferation assay on DU-145. Conditions: Homo sapiens, DU-145; 72 h treatment; average with SD (n = 3, duplicate). Format: cell-based. On the procedure:
as §1, §2

Assay [4] deals with HT-29 (KRAS-Q61L). Briefly: Anti-proliferation assay on HT-29. Format: cell-based. The conditions noted are these: Homo sapiens, HT-29; 72 h treatment; average with SD (n = 3, duplicate). On the procedure:
as §1, §2

Assay [5] relates to MDA-MB-231 (KRAS-G13D). Briefly: Anti-proliferation assay on MDA-MB-231. Format: cell-based. Conditions: Homo sapiens, MDA-MB-231; 72 h treatment; average with SD (n = 3, duplicate). On the procedure:
as §1, §2

Assay [6] concerns Ba/F3-parental cells. Put plainly: Anti-proliferation assay (CellTiter Glo) on Ba/F3-parental. The conditions noted are these: Mus musculus, BaF3; 72 h treatment; with 10 ng/ml IL-3; average with SD (n = 3, duplicate). Format: cell-based. On the procedure:
as §1, §2
(In general: In ATP-based viability assays light output follows the ATP content of the culture.)

Assay [7] has as its system U937 (KRAS, NRAS-wt). Put plainly: Anti-proliferation assay on U937. Format: cell-based. Conditions: Homo sapiens, U-937; 72 h treatment; average with SD (n = 3, duplicate). On the procedure:
as §1, §2

The subject of assay [8] is Ba/F3-NRAS-G12D cells. Put plainly: Anti-proliferation assay (CellTiter Glo) on Ba/F3-NRAS-G12D. The conditions noted are these: Mus musculus, BaF3; 72 h treatment; average with SD (n = 3, duplicate). Format: cell-based. On the procedure: as §1, §2
Assay [9] has as its system OCI-AML3 (NRAS-Q61L). Briefly: Anti-proliferation assay on OCI-AML3. Format: cell-based, human. Conditions: Homo sapiens, OCI-AML-3; 72 h treatment; average with SD (n = 3, duplicate). On the procedure:
as §1, §2

For assay [10], the system named is MDA-MB-468 (KRAS, NRAS-wt). Briefly: Anti-proliferation assay on MDA-MB-468. Conditions: Homo sapiens, MDA-MB-468; 72 h treatment; average with SD (n = 3, duplicate). Format: cell-based. On the procedure:
as §1, §2

The subject of assay [11] is AsPC-1 (KRAS-G12D). Briefly: Anti-proliferation assay on AsPC-1. Format: cell-based. The conditions noted are these: Homo sapiens, ASPC1; 72 h treatment; average with SD (n = 3, duplicate). On the procedure: as §1, §2
Assay [12] relates to H358 (KRAS-G12C). Briefly: Anti-proliferation assay on H358. Format: cell-based. Conditions: Homo sapiens, NCI-H358; 72 h treatment; average with SD (n = 3, duplicate). On the procedure:
as §1, §2

The subject of assay [13] is Ba/F3-NRAS-G12V cells. Put plainly: Anti-proliferation assay (CellTiter Glo) on Ba/F3-NRAS-G12V. Format: cell-based. The conditions noted are these: Mus musculus, BaF3; 72 h treatment; average with SD (n = 3, duplicate). On the procedure: as §1, §2

With `Cc1ccc(NC(=O)c2cccc(C(F)(F)F)c2)cc1N1Cc2cnc(Nc3ccc(N4CCCCC4)cc3)nc2N(C)C1=O` [Compound 1, N-(4-Methyl-3-(1-methyl-2-oxo-7-((4-(piperidin-1-yl)phenyl)amino)-1,4-dihydropyrimido[4,5-d]pyrimidin-3(2H)-yl)phenyl)-3-(trifluoromethyl)benzamide], the GI50 was 4510 ± 873 nM in assay [1]; 1240 ± 554 nM in [2]; 1040 ± 400 nM in [3]; 1310 ± 54 nM in assay [4]; 1120 ± 290 nM in assay [5]; more than 50000 nM in assay [6]. For the same compound, the GI50 in assay [7] was more than 50000 nM; in assay [8] it was 586 ± 91 nM; in assay [9] it was 611 ± 65 nM; in assay [10], more than 50000 nM; in assay [11] it was 2020 ± 56 nM; in assay [12], 1380 ± 96 nM.
For the compound `Cc1ccc(NC(=O)c2cccc(C(F)(F)F)c2)cc1N1Cc2cnc(Nc3ccc(N4CCC(O)CC4)cc3)nc2N(C)C1=O` [Compound 2, N-(3-(7-((4-(4-Hydroxypiperidin-1-yl)phenyl)amino)-1-methyl-2-oxo-1,4-dihydropyrimido[4,5-d]pyrimidin-3(2H)-yl)-4-methylphenyl)-3-(trifluoromethyl)benzamide], the 50% growth inhibitory concentration (GI50) stood at 293 ± 50 nM in assay [1]; 15 ± 9 nM in [2]; 181 ± 42 nM in [13]; 40 ± 20 nM in assay [3]; 143 ± 10 nM in assay [4]; 90 nM in assay [5]. In addition, the GI50 in assay [6] was 827 ± 142 nM; in assay [7], 1690 ± 624 nM; in assay [8] it was 116 ± 37 nM; in [9], 101 ± 22 nM; in [10], 20200 ± 8770 nM; in assay [11] it was 257 ± 129 nM. Further, in assay [12], the GI50 is 201 ± 23 nM.
Consider `Cc1ccc(NC(=O)c2cccc(C(F)(F)F)c2)cc1N1Cc2cnc(Nc3ccc(N4CCOCC4)cc3)nc2N(C)C1=O` [Compound 3, N-(4-Methyl-3-(1-methyl-7-((4-morpholinophenyl)amino)-2-oxo-1,4-dihydropyrimido[4,5-d]pyrimidin-3(2H)-yl)phenyl)-3-(trifluoromethyl)benzamide], for which the 50% growth inhibitory concentration (GI50) in [1] was 382 ± 52 nM; in assay [2], 18 ± 6 nM; in assay [13] it was 134 ± 45 nM; in [3] it was 30 ± 8 nM; in [4], 227 ± 12 nM; in [5], 49 ± 12 nM. Also, the GI50 in assay [6] was 1060 ± 55 nM; in [7] it was 2220 ± 163 nM; in assay [8], 120 ± 39 nM; in assay [9] it was 80 ± 16 nM; in assay [10], more than 50000 nM; in assay [11], 136 ± 11 nM. The same compound showed a GI50 in assay [12] of 265 ± 4 nM.
Turning to `CCN1CCN(c2ccc(Nc3ncc4c(n3)N(C)C(=O)N(c3cc(NC(=O)c5cccc(C(F)(F)F)c5)ccc3C)C4)cc2)CC1` [Compound 4, N-(3-(7-((4-(4-Ethylpiperazin-1-yl)phenyl)amino)-1-methyl-2-oxo-1,4-dihydropyrimido[4,5-d]pyrimidin-3(2H)-yl)-4-methylphenyl)-3-(trifluoromethyl)benzamide], the GI50 in assay [1] is 163 nM; in assay [2], 25 ± 10 nM; in [13], 213 ± 53 nM; in assay [3], 32 ± 14 nM; in assay [4], 126 ± 2 nM; in assay [5], 83 ± 22 nM. In addition, the GI50 was found to be 857 ± 108 nM in [6]; 1040 ± 225 nM in [7]; 230 ± 129 nM in assay [8]; 44 ± 14 nM in [9]; 26100 ± 7900 nM in assay [10]; 135 ± 18 nM in assay [11]. Besides, it took 236 ± 29 nM to inhibit growth in [12] by half (GI50).
As to `Cc1ccc(NC(=O)c2cccc(C(F)(F)F)c2)cc1N1Cc2cnc(NCCCN3CCOCC3)nc2N(C)C1=O` [Compound 5, N-(4-Methyl-3-(1-methyl-7-((3-morpholinopropyl)amino)-2-oxo-1,4-dihydropyrimido[4,5-d]pyrimidin-3(2H)-yl)phenyl)-3-(trifluoromethyl)benzamide], the 50% growth inhibitory concentration (GI50) in assay [1] turned out to be 6440 ± 264 nM; in assay [2], 2540 ± 1810 nM; in [13], 351 ± 34 nM; in assay [3], 1880 ± 125 nM; in assay [4], 3120 ± 460 nM; in assay [5], 1110 ± 127 nM. Also, the GI50 was 5730 ± 148 nM in [6]; 4720 ± 488 nM in assay [7]; 457 ± 141 nM in assay [8]; 538 ± 162 nM in assay [9]; more than 50000 nM in [10]; 4160 ± 2170 nM in [11]. Besides, in assay [12], it took 5140 ± 368 nM to inhibit growth by half (GI50).
Consider `Cc1ccc(Nc2ncc3c(n2)N(C)C(=O)N(c2cc(NC(=O)c4cccc(C(F)(F)F)c4)ccc2C)C3)c(C)n1` [Compound 6, N-(3-(7-((2,6-Dimethylpyridin-3-yl)amino)-1-methyl-2-oxo-1,4-dihydropyrimido[4,5-d]pyrimidin-3(2H)-yl)-4-methylphenyl)-3-(trifluoromethyl)benzamide], for which the GI50 in assay [1] was 2050 ± 51 nM; in [2], 1530 ± 390 nM; in assay [13], 428 ± 161 nM; in assay [3], 1170 ± 124 nM; in assay [4], 3250 ± 176 nM; in assay [5] it was 646 ± 68 nM. The GI50 is 1470 ± 317 nM in [6]; 2870 ± 142 nM in [7]; 569 ± 28 nM in [8]; 374 ± 24 nM in assay [9]; more than 50000 nM in assay [10]; 3170 ± 244 nM in [11]. Also, growth in assay [12] was halved (GI50) at 2060 ± 1130 nM.
With `COc1cc(N2CCOCC2)ccc1Nc1ncc2c(n1)N(C)C(=O)N(c1cc(NC(=O)c3cccc(C(F)(F)F)c3)ccc1C)C2` [Compound 7, N-(3-(7-((2-Methoxy-4-morpholinophenyl)amino)-1-methyl-2-oxo-1,4-dihydropyrimido[4,5-d]pyrimidin-3(2H)-yl)-4-methylphenyl)-3-(trifluoromethyl)benzamide], the GI50 in [1] stood at 1329 ± 5 nM; in assay [2], 480 ± 275 nM; in [13], 429 ± 80 nM; in assay [3] it was 388 ± 45 nM; in assay [4] it was 733 ± 1 nM; in assay [5], 620 ± 153 nM. Besides, the GI50 in assay [6] is 3780 ± 1890 nM; in [7], 17400 ± 4220 nM; in assay [8] it was 588 ± 72 nM; in [9] it was 606 ± 68 nM; in [10] it was more than 50000 nM; in assay [11], 1680 ± 589 nM. This compound registered a GI50 in assay [12] of 871 ± 141 nM.
`CCN1CCN(c2ccc(Nc3ncc4c(n3)N(C)C(=O)N(c3cc(NC(=O)c5cccc(C(F)(F)F)c5)ccc3C)C4)c(C(F)(F)F)c2)CC1` [Compound 8, N-(3-(7-((4-(4-Ethylpiperazin-1-yl)-2-(trifluoromethyl)phenyl)amino)-1-methyl-2-oxo-1,4-dihydropyrimido[4,5-d]pyrimidin-3(2H)-yl)-4-methylphenyl)-3-(trifluoromethyl)benzamide]: the GI50 is 5790 ± 657 nM in assay [1]; 5810 ± 965 nM in [2]; 944 ± 112 nM in [13]; 3990 ± 566 nM in assay [3]; 2140 ± 109 nM in [4]; 2790 ± 658 nM in assay [5]. In addition, the GI50 in assay [6] is 3920 ± 722 nM; in assay [7], 6060 ± 2180 nM; in [8], 1255 ± 6 nM; in assay [9], 687 ± 154 nM; in assay [10] it was more than 50000 nM; in assay [11], 6650 ± 102 nM. In assay [12], this compound gave a GI50 of 8980 ± 246 nM.

These data come from article PMC8695447, “Novel Small Molecules Capable of Blocking mtRAS-Signaling Pathway” (Frontiers in Oncology, 2021).
